Consider 1 molecule from patent publication US11160798B2, “Neuroprotective CB2 receptor agonists” (THE CLEVELAND CLINIC FOUNDATION, priority 2012, dated 2021).

One assay has as its system CD11b. Kind of assay: CD11b immunoreactivity in hippocampal CA1 area (immunostaining, immunoblotting). It is filed as in vivo, rat. On the procedure:
(§1) Animals were divided into several groups ([…]). The Aβ1-40 group received bilateral intracerebral microinjection of Aβ1-40 fibrils once and saline intraperitoneally (i.p.) daily for 14 days. The Aβ1-40+MDA7 group received bilateral intracerebral microinjection of Aβ1-40 fibrils once and 15 mg/kg MDA7 i.p. daily for 14 days. Other cohorts received smaller doses of MDA7 (5 mg/kg or 1.5 mg/kg) i.p. daily for 14 days to determine the dose-response characteristics for MDA7. In other groups, AM630 (a CB2 antagonist) 5 mg/kg i.p. was administered daily for 14 days either alone (Aβ1-40+AM630 group) or 15 min prior to MDA7 (15 mg/kg i.p.) administration (Aβ1-40+MDA7+AM630 group) to rats injected with β1-40 fibrils. MDA7 group and control group received bilateral intracerebral microinjection of artificial cerebrospinal fluid (130 mM NaCl, 2.6 mM KCl. 4.3 mM MgCl2 and 1.8 mM CaCl2) once and 15 mg/kg MDA7 or saline i.p. daily for 14 days, respectively. Intraperitoneal administration of AM630, MDA7 or saline started on the same day after intracerebral microinjection of Aβ1-40. All drugs were prepared coded. Decoding was performed at the end of all experiments.
(§2) Microinjection of amyloid fibrils into the hippocampal CA1 area. Rats were anesthetized with sodium pentobarbital (45 mg/kg i.p.) and restrained in a stereotaxic apparatus. Aβ1-40 fibrils were formed as described previously. […]
(§3) Immunostaining. […] Three to six sections from each rat were randomly selected and were analyzed using Leica DMLB fluorescence microscope (Leica Microsystems Wetzlar GmbH, Germany) by one investigator, who was blinded to the origin of tissue being examined. Images were quantified using MCID Core software version 7.0 (InterFocus Imaging Ltd, Cambridge, England). […]

For the next assay, the system named is GFAP. Kind of assay: GFAP immunoreactivity in hippocampal CA1 area (immunostaining, immunoblotting). It is filed as in vivo, rat. On the procedure:
as §1, §2, §3
(In western blotting, separated proteins are transferred to a membrane and probed.)

In the next assay the test system is CB2 receptor. Kind of assay: CB2 receptor expression in hippocampal CA1 area (immunostaining, immunoblotting). In kind it is in vivo, rat. As to conditions: Aβ1-40-injected rats. On the procedure: as §1, with “Intraperitoneal administration of AM630, MDA7 or saline started on the same day after intracerebral microinjection of Aβ1-40. All drugs were prepared coded. Decoding was performed at the end of all experiments.” left out
as §3

A further assay addresses T1, rCB2 (Rattus norvegicus, UniProt Q9QZN9).
T1 sequence (Q9QZN9 1-360): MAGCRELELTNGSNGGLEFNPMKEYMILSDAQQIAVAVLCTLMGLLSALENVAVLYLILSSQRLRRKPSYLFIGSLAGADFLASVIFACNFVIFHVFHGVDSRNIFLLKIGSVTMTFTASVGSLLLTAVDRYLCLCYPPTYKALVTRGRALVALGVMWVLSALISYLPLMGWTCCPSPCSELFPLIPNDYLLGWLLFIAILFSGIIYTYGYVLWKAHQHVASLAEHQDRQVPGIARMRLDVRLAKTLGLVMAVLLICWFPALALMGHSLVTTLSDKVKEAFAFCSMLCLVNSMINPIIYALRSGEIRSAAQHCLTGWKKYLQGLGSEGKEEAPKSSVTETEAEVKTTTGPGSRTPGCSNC
As to conditions: cited from earlier work.

[1] abbreviates: Aβ-injected rats, 14 days i.p. (15 mg/kg), vs saline, hippocampal CA1.
The mark [2] stands for this setting: rats without Aβ1-40, compared to control rats.

Structures are written as SMILES.

Broadly, the EC50 is the midpoint of the concentration-response curve. For `CC1(Cc2ccccc2)COc2cc(C(=O)N3CCCCC3)ccc21` (stereo not drawn) [MDA7, 3-benzyl-3-methyl-2,3-dihydrobenzofuran-6-carboxylic acid-piperidine amide], the CD11b immunofluorescence intensity result in the assay with CD11b (Aβ1-40-injected rats, i.p. for 14 days, vs saline, hippocampal CA1) is listed as “significantly less”. The “CD11b protein expression (immunoblot)” value with CD11b (setting [1]) is “significantly attenuated”. The “CD11B expression, treatment alone” value in the assay with CD11b (setting [2]) is listed as “no significant effect”. The GFAP immunofluorescence intensity result in the assay with GFAP (Aβ1-40-injected rats, 15 mg/kg i.p. for 14 days, vs saline, hippocampal CA1) is “significantly less”. Moreover, the “GFAP protein expression (immunoblot)” value in the assay on GFAP (setting [1]) is recorded as “significantly attenuated”. Besides, the “GFAP expression, treatment alone” value in the assay with GFAP (setting [2]) was “no significant effect”. For the same molecule, the “CB2 receptor expression (immunoblotting)” value in the assay on CB2 receptor (15 mg/kg i.p. daily for 14 days) is given as “significantly reversed”. The “CB2 expression (immunofluorescence)” value in the assay with CB2 receptor (15 mg/kg i.p. for 14 days, vs saline) is given as “reduced CB2 expression”. Moreover, the concentration giving a half-maximal response (EC50) at rCB2 is 67 nM.
